{"source": "patent US9790178B2", "about": "“Pyrrolidinyl urea, thiourea, guanidine and cyanoguanidine compounds as TrkA kinase inhibitors” (Array BioPharma Inc., priority 2012, dated 2017)", "experiment_in_all_cases": "KinaseProfiler off-target kinase profiling", "format_in_all_cases": "biochemical", "conditions_in_all_cases": "10 μM, ATP near Km", "key": {"[1]": {"target": "T1, ALK (Homo sapiens, UniProt Q9UM73)", "T1 construct": "purchased Millipore, Inc. (KinaseProfiler service)", "method": "(§1) A representative compound of the invention (Example 20) was tested for off-target kinase activity at a concentration of 10 μM by Millipore, Inc. in their KinaseProfiler™ service against all the kinases available in their full kinase panel. The compound was run in duplicate at a concentration of ATP near the Km for each individual kinase according to Millipore's specifications. The results are shown in Table B. Data are reported as percent of control (POC) and are the average of the two replicates."}, "[2]": {"target": "T2, Axl (Homo sapiens, UniProt P30530)", "T2 construct": "purchased Millipore, Inc. (KinaseProfiler service)", "T2 sequence (P30530 26-894)": "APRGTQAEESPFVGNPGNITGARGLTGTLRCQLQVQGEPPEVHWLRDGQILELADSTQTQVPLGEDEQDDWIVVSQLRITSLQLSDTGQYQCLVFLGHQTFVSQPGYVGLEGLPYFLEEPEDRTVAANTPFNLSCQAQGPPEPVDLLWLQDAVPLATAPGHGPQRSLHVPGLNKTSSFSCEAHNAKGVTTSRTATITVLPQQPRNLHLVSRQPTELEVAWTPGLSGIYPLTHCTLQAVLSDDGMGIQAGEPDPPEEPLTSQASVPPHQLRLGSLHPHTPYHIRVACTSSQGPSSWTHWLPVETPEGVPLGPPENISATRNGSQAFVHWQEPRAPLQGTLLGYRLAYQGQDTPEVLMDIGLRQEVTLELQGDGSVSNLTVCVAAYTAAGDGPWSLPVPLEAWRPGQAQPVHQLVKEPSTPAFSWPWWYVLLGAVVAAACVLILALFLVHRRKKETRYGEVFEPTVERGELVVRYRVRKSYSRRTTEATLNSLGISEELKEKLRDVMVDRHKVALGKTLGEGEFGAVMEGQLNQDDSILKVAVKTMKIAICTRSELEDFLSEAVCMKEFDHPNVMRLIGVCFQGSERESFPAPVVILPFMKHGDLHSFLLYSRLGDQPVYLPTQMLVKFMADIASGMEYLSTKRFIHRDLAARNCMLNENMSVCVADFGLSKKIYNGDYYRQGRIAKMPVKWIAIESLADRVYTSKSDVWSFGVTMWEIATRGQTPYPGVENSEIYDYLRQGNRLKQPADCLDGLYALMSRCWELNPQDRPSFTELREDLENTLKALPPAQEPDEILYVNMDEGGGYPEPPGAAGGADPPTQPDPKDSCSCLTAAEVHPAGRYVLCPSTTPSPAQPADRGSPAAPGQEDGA", "method": "as §1"}, "[3]": {"target": "T3, BLK_m (Mus musculus, UniProt P16277)", "T3 construct": "purchased Millipore, Inc. (KinaseProfiler service)", "method": "as §1"}, "[4]": {"target": "T4, Bmx (Homo sapiens, UniProt P51813)", "T4 construct": "purchased Millipore, Inc. (KinaseProfiler service)", "method": "as §1"}, "[5]": {"target": "T5, BrSK1 (Homo sapiens, UniProt Q8TDC3)", "T5 construct": "purchased Millipore, Inc. (KinaseProfiler service)", "method": "as §1"}, "[6]": {"target": "T6, CAMK2g (Homo sapiens, UniProt Q13555)", "T6 construct": "purchased Millipore, Inc. (KinaseProfiler service)", "method": "as §1"}, "[7]": {"target": "T7, CAMK4 (Homo sapiens, UniProt Q16566)", "T7 construct": "purchased Millipore, Inc. (KinaseProfiler service)", "method": "as §1"}, "[8]": {"target": "T8, CDK5/p25 (Homo sapiens, UniProt Q00535)", "T8 construct": "purchased Millipore, Inc. (KinaseProfiler service)", "method": "as §1"}, "[9]": {"target": "T9, CSK (Homo sapiens, UniProt P41240)", "T9 construct": "purchased Millipore, Inc. (KinaseProfiler service)", "method": "as §1"}, "[10]": {"target": "T10, DAPK1 (Homo sapiens, UniProt P53355)", "T10 construct": "purchased Millipore, Inc. (KinaseProfiler service)", "method": "as §1"}, "[11]": {"target": "T11, DDR2 (Homo sapiens, UniProt Q16832)", "T11 construct": "purchased Millipore, Inc. (KinaseProfiler service)", "method": "as §1"}, "[12]": {"target": "T12, EphA5 (Homo sapiens, UniProt P54756)", "T12 construct": "purchased Millipore, Inc. (KinaseProfiler service)", "T12 sequence (P54756 25-1037)": "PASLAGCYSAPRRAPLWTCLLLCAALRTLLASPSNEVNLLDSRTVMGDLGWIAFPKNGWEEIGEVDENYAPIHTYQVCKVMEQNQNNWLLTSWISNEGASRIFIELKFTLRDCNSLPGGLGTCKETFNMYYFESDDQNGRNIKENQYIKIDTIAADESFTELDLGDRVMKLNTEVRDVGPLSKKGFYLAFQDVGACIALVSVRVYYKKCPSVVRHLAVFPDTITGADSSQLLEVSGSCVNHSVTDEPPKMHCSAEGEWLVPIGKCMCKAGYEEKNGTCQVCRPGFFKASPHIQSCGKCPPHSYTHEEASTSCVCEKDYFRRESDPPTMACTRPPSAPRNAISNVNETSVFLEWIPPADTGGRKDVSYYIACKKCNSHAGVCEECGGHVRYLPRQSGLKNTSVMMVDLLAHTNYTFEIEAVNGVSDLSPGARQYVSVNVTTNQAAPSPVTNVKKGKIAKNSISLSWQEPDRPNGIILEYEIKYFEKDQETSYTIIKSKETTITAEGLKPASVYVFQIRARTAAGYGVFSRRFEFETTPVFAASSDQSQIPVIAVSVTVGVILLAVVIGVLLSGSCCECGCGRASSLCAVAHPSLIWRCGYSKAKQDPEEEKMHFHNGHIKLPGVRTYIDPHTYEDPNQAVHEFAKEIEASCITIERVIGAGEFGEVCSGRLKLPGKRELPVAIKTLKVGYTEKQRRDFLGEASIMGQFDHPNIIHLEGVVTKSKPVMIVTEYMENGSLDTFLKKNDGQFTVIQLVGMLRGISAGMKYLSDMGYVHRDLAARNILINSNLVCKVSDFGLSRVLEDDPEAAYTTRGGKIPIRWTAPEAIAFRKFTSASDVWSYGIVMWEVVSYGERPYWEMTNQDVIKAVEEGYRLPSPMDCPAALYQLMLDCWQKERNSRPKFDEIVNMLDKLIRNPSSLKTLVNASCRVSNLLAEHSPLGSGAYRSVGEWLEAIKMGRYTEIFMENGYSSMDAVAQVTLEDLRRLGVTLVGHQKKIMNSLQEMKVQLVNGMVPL", "method": "as §1"}, "[13]": {"target": "T13, EphB3 (Homo sapiens, UniProt P54753)", "T13 construct": "purchased Millipore, Inc. (KinaseProfiler service)", "T13 sequence (P54753 34-998)": "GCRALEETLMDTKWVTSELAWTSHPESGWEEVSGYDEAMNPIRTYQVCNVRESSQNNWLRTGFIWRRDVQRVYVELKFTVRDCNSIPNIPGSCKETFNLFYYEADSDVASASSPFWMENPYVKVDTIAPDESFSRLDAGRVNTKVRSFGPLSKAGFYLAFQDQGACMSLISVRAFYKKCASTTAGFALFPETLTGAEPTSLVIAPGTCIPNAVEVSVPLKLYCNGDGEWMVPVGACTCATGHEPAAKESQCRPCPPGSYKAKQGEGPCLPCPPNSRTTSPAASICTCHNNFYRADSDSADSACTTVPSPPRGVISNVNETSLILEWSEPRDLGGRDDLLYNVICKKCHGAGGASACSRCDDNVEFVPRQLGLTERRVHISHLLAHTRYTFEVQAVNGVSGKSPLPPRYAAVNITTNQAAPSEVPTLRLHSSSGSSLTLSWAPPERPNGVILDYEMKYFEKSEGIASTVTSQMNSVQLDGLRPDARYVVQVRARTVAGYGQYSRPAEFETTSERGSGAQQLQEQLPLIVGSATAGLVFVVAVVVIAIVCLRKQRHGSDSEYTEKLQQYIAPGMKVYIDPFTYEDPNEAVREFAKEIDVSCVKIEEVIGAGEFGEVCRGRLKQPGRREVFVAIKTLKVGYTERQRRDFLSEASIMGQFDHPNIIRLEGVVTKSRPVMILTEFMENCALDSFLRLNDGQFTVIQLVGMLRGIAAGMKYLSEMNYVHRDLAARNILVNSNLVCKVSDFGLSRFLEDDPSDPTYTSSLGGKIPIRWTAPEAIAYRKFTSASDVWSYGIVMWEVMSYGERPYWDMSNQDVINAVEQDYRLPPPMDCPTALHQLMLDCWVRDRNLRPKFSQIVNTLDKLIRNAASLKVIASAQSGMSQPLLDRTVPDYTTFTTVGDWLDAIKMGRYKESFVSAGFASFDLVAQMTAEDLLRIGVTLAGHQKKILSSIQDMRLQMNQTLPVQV", "method": "as §1"}, "[14]": {"target": "T14, FAK (Homo sapiens, UniProt Q05397)", "T14 construct": "purchased Millipore, Inc. (KinaseProfiler service)", "method": "as §1"}, "[15]": {"target": "T15, FGFR2 (Homo sapiens, UniProt P21802)", "T15 construct": "purchased Millipore, Inc. (KinaseProfiler service)", "T15 sequence (P21802 22-821)": "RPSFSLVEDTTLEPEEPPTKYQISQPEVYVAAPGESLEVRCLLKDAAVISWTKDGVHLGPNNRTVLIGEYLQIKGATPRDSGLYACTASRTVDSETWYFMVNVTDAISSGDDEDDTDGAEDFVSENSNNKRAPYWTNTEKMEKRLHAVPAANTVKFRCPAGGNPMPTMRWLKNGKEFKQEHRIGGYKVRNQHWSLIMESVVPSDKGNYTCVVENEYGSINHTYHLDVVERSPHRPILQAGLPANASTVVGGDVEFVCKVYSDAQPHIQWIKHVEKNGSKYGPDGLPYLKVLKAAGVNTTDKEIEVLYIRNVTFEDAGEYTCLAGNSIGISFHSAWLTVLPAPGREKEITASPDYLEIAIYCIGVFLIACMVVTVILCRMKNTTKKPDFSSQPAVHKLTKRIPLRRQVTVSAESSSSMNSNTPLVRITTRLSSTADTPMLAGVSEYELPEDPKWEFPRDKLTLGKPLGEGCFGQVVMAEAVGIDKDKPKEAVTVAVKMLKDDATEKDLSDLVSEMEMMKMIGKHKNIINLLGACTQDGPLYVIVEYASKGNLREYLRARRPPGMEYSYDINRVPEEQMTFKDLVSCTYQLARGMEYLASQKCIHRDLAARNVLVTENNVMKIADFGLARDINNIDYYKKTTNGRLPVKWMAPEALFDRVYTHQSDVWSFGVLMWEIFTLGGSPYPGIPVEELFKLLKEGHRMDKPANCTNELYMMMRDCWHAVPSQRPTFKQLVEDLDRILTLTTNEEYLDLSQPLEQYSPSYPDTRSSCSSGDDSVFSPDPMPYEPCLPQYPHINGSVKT", "method": "as §1"}, "[16]": {"target": "T16, Flt3 (Homo sapiens, UniProt P36888)", "T16 construct": "purchased Millipore, Inc. (KinaseProfiler service)", "method": "as §1"}, "[17]": {"target": "T17, Flt4 (Homo sapiens, UniProt P35916)", "T17 construct": "purchased Millipore, Inc. (KinaseProfiler service)", "method": "as §1"}, "[18]": {"target": "T18, Hck (Homo sapiens, UniProt P08631)", "T18 construct": "purchased Millipore, Inc. (KinaseProfiler service)", "method": "as §1"}, "[19]": {"target": "T19, IKKbeta (Homo sapiens, UniProt O14920)", "T19 construct": "purchased Millipore, Inc. (KinaseProfiler service)", "method": "as §1"}, "[20]": {"target": "T20, IR (Homo sapiens, UniProt P06213)", "T20 construct": "purchased Millipore, Inc. (KinaseProfiler service)", "method": "as §1"}, "[21]": {"target": "T21, IR Activated (Homo sapiens, UniProt P06213)", "T21 construct": "purchased Millipore, Inc. (KinaseProfiler service)", "method": "as §1"}, "[22]": {"target": "T22, JAK2 (Homo sapiens, UniProt O60674)", "T22 construct": "purchased Millipore, Inc. (KinaseProfiler service)", "method": "as §1"}, "[23]": {"target": "T23, KIT (Homo sapiens, UniProt P10721)", "T23 construct": "purchased Millipore, Inc. (KinaseProfiler service)", "method": "as §1"}, "[24]": {"target": "T24, Lck (Homo sapiens, UniProt P06239)", "T24 construct": "purchased Millipore, Inc. (KinaseProfiler service)", "method": "as §1"}, "[25]": {"target": "T25, MAPKAP-K3 (Homo sapiens, UniProt Q16644)", "T25 construct": "purchased Millipore, Inc. (KinaseProfiler service)", "method": "as §1"}, "[26]": {"target": "T26, MAPKAP-K5 (Homo sapiens, UniProt Q8IW41)", "T26 construct": "purchased Millipore, Inc. (KinaseProfiler service)", "method": "as §1"}, "[27]": {"target": "T27, MARK2 (Homo sapiens, UniProt Q7KZI7)", "T27 construct": "purchased Millipore, Inc. (KinaseProfiler service)", "method": "as §1"}, "[28]": {"target": "T28, MLK1 (Homo sapiens, UniProt P80192)", "T28 construct": "purchased Millipore, Inc. (KinaseProfiler service)", "method": "as §1"}, "[29]": {"target": "T29, MST3 (Homo sapiens, UniProt Q9Y6E0)", "T29 construct": "purchased Millipore, Inc. (KinaseProfiler service)", "method": "as §1"}, "[30]": {"target": "T30, MYLK (Homo sapiens, UniProt Q15746)", "T30 construct": "purchased Millipore, Inc. (KinaseProfiler service)", "method": "as §1"}, "[31]": {"target": "T31, PASK (Homo sapiens, UniProt Q96RG2)", "T31 construct": "purchased Millipore, Inc. (KinaseProfiler service)", "method": "as §1"}, "[32]": {"target": "T32, PTK6 (Homo sapiens, UniProt Q13882)", "T32 construct": "purchased Millipore (KinaseProfiler service)", "method": "as §1"}, "[33]": {"target": "T33, Rsk3 (Homo sapiens, UniProt Q15349)", "T33 construct": "purchased Millipore (KinaseProfiler service)", "method": "as §1"}, "[34]": {"target": "T34, SRPK2 (Homo sapiens, UniProt P78362)", "T34 construct": "purchased Millipore, Inc. (KinaseProfiler service)", "T34 sequence (P78362 whole entry)": "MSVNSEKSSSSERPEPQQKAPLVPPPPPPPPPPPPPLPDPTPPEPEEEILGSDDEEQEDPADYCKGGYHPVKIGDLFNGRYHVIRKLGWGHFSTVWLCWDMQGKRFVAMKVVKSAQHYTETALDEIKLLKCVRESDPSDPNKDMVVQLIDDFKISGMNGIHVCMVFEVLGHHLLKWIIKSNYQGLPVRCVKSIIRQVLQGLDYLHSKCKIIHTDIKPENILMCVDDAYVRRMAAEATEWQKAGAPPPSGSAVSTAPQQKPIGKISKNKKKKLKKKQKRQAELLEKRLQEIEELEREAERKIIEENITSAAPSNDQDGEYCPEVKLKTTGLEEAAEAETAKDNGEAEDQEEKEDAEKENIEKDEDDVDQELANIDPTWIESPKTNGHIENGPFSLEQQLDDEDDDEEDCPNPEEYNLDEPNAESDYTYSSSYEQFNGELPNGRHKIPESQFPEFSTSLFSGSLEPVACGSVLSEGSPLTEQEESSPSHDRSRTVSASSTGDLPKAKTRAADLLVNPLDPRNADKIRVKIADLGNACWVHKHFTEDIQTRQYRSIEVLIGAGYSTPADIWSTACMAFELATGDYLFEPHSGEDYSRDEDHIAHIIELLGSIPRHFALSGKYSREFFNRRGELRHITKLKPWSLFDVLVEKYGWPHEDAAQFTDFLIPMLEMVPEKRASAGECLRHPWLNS", "method": "as §1"}, "[35]": {"target": "T35, Syk (Homo sapiens, UniProt P43405)", "T35 construct": "purchased Millipore, Inc. (KinaseProfiler service)", "method": "as §1"}, "[36]": {"target": "T36, TAO1 (Homo sapiens, UniProt Q7L7X3)", "T36 construct": "purchased Millipore, Inc. (KinaseProfiler service)", "method": "as §1"}, "[37]": {"target": "T37, TrkB (Homo sapiens, UniProt Q16620)", "T37 construct": "purchased Millipore, Inc. (KinaseProfiler service)", "method": "as §1"}, "[38]": {"target": "T38, ULK3 (Homo sapiens, UniProt Q6PHR2)", "T38 construct": "purchased Millipore, Inc. (KinaseProfiler service)", "method": "as §1"}, "[39]": {"target": "T39, VRK2 (Homo sapiens, UniProt Q86Y07)", "T39 construct": "purchased Millipore, Inc. (KinaseProfiler service)", "method": "as §1"}, "[40]": {"target": "T40, Yes (Homo sapiens, UniProt P07947)", "T40 construct": "purchased Millipore, Inc. (KinaseProfiler service)", "method": "as §1"}, "[41]": {"target": "T41, p70S6K (Homo sapiens, UniProt P23443)", "T41 construct": "purchased Millipore, Inc. (KinaseProfiler service)", "T41 sequence (P23443 whole entry)": "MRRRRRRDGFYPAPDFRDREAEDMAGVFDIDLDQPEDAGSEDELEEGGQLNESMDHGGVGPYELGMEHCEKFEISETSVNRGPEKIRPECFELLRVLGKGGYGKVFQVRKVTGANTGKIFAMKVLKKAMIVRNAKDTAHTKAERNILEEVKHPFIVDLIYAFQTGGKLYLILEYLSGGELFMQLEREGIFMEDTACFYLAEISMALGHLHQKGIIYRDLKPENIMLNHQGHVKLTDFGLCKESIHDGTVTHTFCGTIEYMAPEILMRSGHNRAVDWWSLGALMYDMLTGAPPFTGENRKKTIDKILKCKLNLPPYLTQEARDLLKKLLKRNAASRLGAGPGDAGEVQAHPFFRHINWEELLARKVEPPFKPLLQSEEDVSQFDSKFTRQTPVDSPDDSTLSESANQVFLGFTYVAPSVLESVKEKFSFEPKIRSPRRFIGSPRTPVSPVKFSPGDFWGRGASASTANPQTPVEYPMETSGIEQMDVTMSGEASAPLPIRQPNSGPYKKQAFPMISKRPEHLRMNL", "method": "as §1"}}, "data": [{"smiles": "COCCN1C[C@@H](NC(=O)Nc2c(-c3ccccc3)nc3c(C)nccn23)[C@H](c2ccc(F)c(F)c2)C1", "note": "[Example 20, 1-((3S,4R)-4-(3,4-difluorophenyl)-1-(2-methoxyethyl)pyrrolidin-3-yl)-3-(8-methyl-2-phenylimidazo[1,2-a]pyrazin-3-yl)urea]", "values": [{"measurement": "Avg. POC", "setting": "[1]", "result": 114, "unit": "POC"}, {"measurement": "Avg. POC", "setting": "[2]", "result": 97, "unit": "POC"}, {"measurement": "Avg. POC", "setting": "[3]", "result": 113, "unit": "POC"}, {"measurement": "Avg. POC", "setting": "[4]", "result": 103.5, "unit": "POC"}, {"measurement": "Avg. POC", "setting": "[5]", "result": 112.5, "unit": "POC"}, {"measurement": "Avg. POC", "setting": "[6]", "result": 113, "unit": "POC"}, {"measurement": "Avg. POC", "setting": "[7]", "result": 105, "unit": "POC"}, {"measurement": "Avg. POC", "setting": "[8]", "result": 111, "unit": "POC"}, {"measurement": "Avg. POC", "setting": "[9]", "result": 104.5, "unit": "POC"}, {"measurement": "Avg. POC", "setting": "[10]", "result": 103, "unit": "POC"}, {"measurement": "Avg. POC", "setting": "[11]", "result": 106, "unit": "POC"}, {"measurement": "Avg. POC", "setting": "[12]", "result": 123, "unit": "POC"}, {"measurement": "Avg. POC", "setting": "[13]", "result": 107, "unit": "POC"}, {"measurement": "Avg. POC", "setting": "[14]", "result": 109.5, "unit": "POC"}, {"measurement": "Avg. POC", "setting": "[15]", "result": 106, "unit": "POC"}, {"measurement": "Avg. POC", "setting": "[16]", "result": 110, "unit": "POC"}, {"measurement": "Avg. POC", "setting": "[17]", "result": 110.5, "unit": "POC"}, {"measurement": "Avg. POC", "setting": "[18]", "result": 110, "unit": "POC"}, {"measurement": "Avg. POC", "setting": "[19]", "result": 107.5, "unit": "POC"}, {"measurement": "Avg. POC", "setting": "[20]", "result": 87.5, "unit": "POC"}, {"measurement": "Avg. POC", "setting": "[21]", "result": 108, "unit": "POC"}, {"measurement": "Avg. POC", "setting": "[22]", "result": 117, "unit": "POC"}, {"measurement": "Avg. POC", "setting": "[23]", "result": 117.5, "unit": "POC"}, {"measurement": "Avg. POC", "setting": "[24]", "result": 135.5, "unit": "POC"}, {"measurement": "Avg. POC", "setting": "[25]", "result": 105, "unit": "POC"}, {"measurement": "Avg. POC", "setting": "[26]", "result": 88.5, "unit": "POC"}, {"measurement": "Avg. POC", "setting": "[27]", "result": 98, "unit": "POC"}, {"measurement": "Avg. POC", "setting": "[28]", "result": 100, "unit": "POC"}, {"measurement": "Avg. POC", "setting": "[29]", "result": 104, "unit": "POC"}, {"measurement": "Avg. POC", "setting": "[30]", "result": 110, "unit": "POC"}, {"measurement": "Avg. POC", "setting": "[31]", "result": 111, "unit": "POC"}, {"measurement": "Avg. POC", "setting": "[32]", "result": 114, "unit": "POC"}, {"measurement": "Avg. POC", "setting": "[33]", "result": 107.5, "unit": "POC"}, {"measurement": "Avg. POC", "setting": "[34]", "result": 100, "unit": "POC"}, {"measurement": "Avg. POC", "setting": "[35]", "result": 99.5, "unit": "POC"}, {"measurement": "Avg. POC", "setting": "[36]", "result": 106, "unit": "POC"}, {"measurement": "Avg. POC", "setting": "[37]", "result": 0.5, "unit": "POC"}, {"measurement": "Avg. POC", "setting": "[38]", "result": 108, "unit": "POC"}, {"measurement": "Avg. POC", "setting": "[39]", "result": 117.5, "unit": "POC"}, {"measurement": "Avg. POC", "setting": "[40]", "result": 109, "unit": "POC"}, {"measurement": "Avg. POC", "setting": "[41]", "result": 112, "unit": "POC"}]}]}
